#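 The compound was tested at five concentrations on cells cultured in 96-well plates, with a 48-hour exposure period. Abbreviation: GI50, concentration required for 50% inhibition of growth.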 Active and inactive are the calls of the source. Rule as the data show it: active = GI50 up to about 1.1 µM and inactive = higher.
# How the values were obtained:
# Assay in all cases: NCI anticancer screen, dose series, 48 h
# NCI-H226 = tested on: NCI-H226
# SNB-19 = tested on: SNB-19
# SF-295 = tested on: SF-295
# OVCAR-8 = tested on: OVCAR-8
# OVCAR-3 = tested on: OVCAR-3
# MDA-N = tested on: MDA-N
# A549 = tested on: A549
# SK-MEL-5 = tested on: SK-MEL-5
# K562 = tested on: K562
# RXF 393 = tested on: RXF 393
# ACHN = tested on: ACHN
# T47D = tested on: T47D
# LOX IMVI = tested on: LOX IMVI
# U-251 = tested on: U-251
# CAKI-1 = tested on: CAKI-1
# COLO 205 = tested on: COLO 205
# Hs-578T = tested on: Hs-578T
# SK-MEL-2 = tested on: SK-MEL-2
# UACC-257 = tested on: UACC-257
# SK-MEL-28 = tested on: SK-MEL-28
# HOP-62 = tested on: HOP-62
# BT-549 = tested on: BT-549
# 786-0 = tested on: 786-0
# NCI-H460 = tested on: NCI-H460
# NCI/ADR-RES = tested on: NCI/ADR-RES
# HCC 2998 = tested on: HCC 2998
# MCF7 = tested on: MCF7
# HCT-15 = tested on: HCT-15
# DU-145 = tested on: DU-145
# HOP-92 = tested on: HOP-92
# SNB-75 = tested on: SNB-75
# HL-60 = tested on: HL-60
# KM12 = tested on: KM12
# SN12C = tested on: SN12C
# PC-3 = tested on: PC-3
# A498 = tested on: A498
# MDA-MB-435 = tested on: MDA-MB-435
# HT-29 = tested on: HT-29
# SF-539 = tested on: SF-539
# UO-31 = tested on: UO-31
# OVCAR-4 = tested on: OVCAR-4
# IGROV-1 = tested on: IGROV-1
# RPMI-8226 = tested on: RPMI-8226
# SK-OV-3 = tested on: SK-OV-3
# Malme-3M = tested on: Malme-3M
# NCI-H522 = tested on: NCI-H522
# TK-10 = tested on: TK-10
# OVCAR-5 = tested on: OVCAR-5
# HCT-116 = tested on: HCT-116
# MDA-MB-231 = tested on: MDA-MB-231
# EKVX = tested on: EKVX
# NCI-H23 = tested on: NCI-H23
# UACC-62 = tested on: UACC-62
# CCRF-CEM = tested on: CCRF-CEM
# MOLT-4 = tested on: MOLT-4
# SF-268 = tested on: SF-268
# SW-620 = tested on: SW-620
# M14 = tested on: M14
# SR = tested on: SR
compound,measurement,setting,value
COc1ccc(NC(=S)N/N=C2\C(=O)Nc3ccccc32)cc1,GI50,NCI-H226,8.97 µM (inactive)
same,GI50,SNB-19,41.7 µM (inactive)
same,GI50,SF-295,3.47 µM (inactive)
same,GI50,OVCAR-8,7.55 µM (inactive)
same,GI50,OVCAR-3,28.8 µM (inactive)
same,GI50,MDA-N,55.6 µM (inactive)
same,GI50,A549,5.52 µM (inactive)
same,GI50,SK-MEL-5,9.27 µM (inactive)
same,GI50,K562,5.69 µM (inactive)
same,GI50,RXF 393,9.27 µM (inactive)
same,GI50,ACHN,6.5 µM (inactive)
same,GI50,T47D,7.98 µM (inactive)
same,GI50,LOX IMVI,2.92 µM (inactive)
same,GI50,U-251,5.22 µM (inactive)
same,GI50,CAKI-1,5.11 µM (inactive)
same,GI50,COLO 205,6.52 µM (inactive)
same,GI50,Hs-578T,29.2 µM (inactive)
same,GI50,SK-MEL-2,40.1 µM (inactive)
same,GI50,UACC-257,47 µM (inactive)
same,GI50,SK-MEL-28,43.1 µM (inactive)
same,GI50,HOP-62,12.2 µM (inactive)
same,GI50,BT-549,4.74 µM (inactive)
same,GI50,786-0,7.55 µM (inactive)
same,GI50,NCI-H460,3.13 µM (inactive)
same,GI50,NCI/ADR-RES,2.07 µM (inactive)
same,GI50,HCC 2998,27.2 µM (inactive)
same,GI50,MCF7,9.48 µM (inactive)
same,GI50,HCT-15,0.984 µM
same,GI50,DU-145,13.6 µM (inactive)
same,GI50,HOP-92,44 µM (inactive)
same,GI50,SNB-75,48 µM (inactive)
same,GI50,HL-60,2.49 µM (inactive)
same,GI50,KM12,13 µM (inactive)
same,GI50,SN12C,40.4 µM (inactive)
same,GI50,PC-3,19.2 µM (inactive)
same,GI50,A498,40.6 µM (inactive)
same,GI50,MDA-MB-435,52.2 µM (inactive)
same,GI50,HT-29,7.96 µM (inactive)
same,GI50,SF-539,6.41 µM (inactive)
same,GI50,UO-31,5.18 µM (inactive)
same,GI50,OVCAR-4,9.77 µM (inactive)
same,GI50,IGROV-1,4.83 µM (inactive)
same,GI50,RPMI-8226,31.4 µM (inactive)
same,GI50,SK-OV-3,20.8 µM (inactive)
same,GI50,Malme-3M,12.9 µM (inactive)
same,GI50,NCI-H522,18.7 µM (inactive)
same,GI50,TK-10,22 µM (inactive)
same,GI50,OVCAR-5,65 µM (inactive)
same,GI50,HCT-116,5.14 µM (inactive)
same,GI50,MDA-MB-231,30.9 µM (inactive)
same,GI50,EKVX,9.14 µM (inactive)
same,GI50,NCI-H23,14.7 µM (inactive)
same,GI50,UACC-62,6.24 µM (inactive)
same,GI50,CCRF-CEM,2.43 µM (inactive)
same,GI50,MOLT-4,4.93 µM (inactive)
same,GI50,SF-268,17.5 µM (inactive)
same,GI50,SW-620,6.28 µM (inactive)
same,GI50,M14,21.9 µM (inactive)
same,GI50,SR,8.51 µM (inactive)
O=C(c1cccs1)N1CCN(C(=O)c2cccs2)C1=S,GI50,NCI-H226,15.8 µM (inactive)
same,GI50,SNB-19,12.4 µM (inactive)
same,GI50,SF-295,16.4 µM (inactive)
same,GI50,OVCAR-8,5.32 µM (inactive)
same,GI50,OVCAR-3,2.94 µM (inactive)
same,GI50,MDA-N,3.69 µM (inactive)
same,GI50,A549,3.96 µM (inactive)
same,GI50,SK-MEL-5,4.59 µM (inactive)
same,GI50,K562,3.05 µM (inactive)
same,GI50,RXF 393,2.6 µM (inactive)
same,GI50,ACHN,7.41 µM (inactive)
same,GI50,T47D,4.15 µM (inactive)
same,GI50,LOX IMVI,2.86 µM (inactive)
same,GI50,U-251,5.92 µM (inactive)
same,GI50,CAKI-1,3.68 µM (inactive)
same,GI50,COLO 205,7.35 µM (inactive)
same,GI50,Hs-578T,10.7 µM (inactive)
same,GI50,SK-MEL-2,11.9 µM (inactive)
same,GI50,UACC-257,6.19 µM (inactive)
same,GI50,SK-MEL-28,5.13 µM (inactive)
same,GI50,HOP-62,5.04 µM (inactive)
same,GI50,BT-549,5.4 µM (inactive)
same,GI50,786-0,2.75 µM (inactive)
same,GI50,NCI-H460,6.75 µM (inactive)
same,GI50,NCI/ADR-RES,16.7 µM (inactive)
same,GI50,HCC 2998,7.96 µM (inactive)
same,GI50,MCF7,3.18 µM (inactive)
same,GI50,HCT-15,3.99 µM
same,GI50,DU-145,2.51 µM (inactive)
same,GI50,HOP-92,7.19 µM (inactive)
same,GI50,SNB-75,2.28 µM (inactive)
same,GI50,HL-60,2.23 µM (inactive)
same,GI50,KM12,3.23 µM (inactive)
same,GI50,SN12C,2.95 µM (inactive)
same,GI50,PC-3,4.5 µM (inactive)
same,GI50,A498,15.1 µM (inactive)
same,GI50,MDA-MB-435,2.88 µM (inactive)
same,GI50,HT-29,6.71 µM (inactive)
same,GI50,SF-539,1.81 µM (inactive)
same,GI50,UO-31,2.33 µM (inactive)
same,GI50,OVCAR-4,16.9 µM (inactive)
same,GI50,IGROV-1,6.7 µM (inactive)
same,GI50,RPMI-8226,1.63 µM (inactive)
same,GI50,SK-OV-3,15.6 µM (inactive)
same,GI50,Malme-3M,9.38 µM (inactive)
same,GI50,NCI-H522,3.98 µM (inactive)
same,GI50,TK-10,5.4 µM (inactive)
same,GI50,OVCAR-5,16 µM (inactive)
same,GI50,HCT-116,8.77 µM (inactive)
same,GI50,MDA-MB-231,6.38 µM (inactive)
same,GI50,EKVX,13.9 µM (inactive)
same,GI50,NCI-H23,12.7 µM (inactive)
same,GI50,UACC-62,5.89 µM (inactive)
same,GI50,CCRF-CEM,2.69 µM (inactive)
same,GI50,MOLT-4,3.24 µM (inactive)
same,GI50,SF-268,5.28 µM (inactive)
same,GI50,SW-620,5.01 µM (inactive)
same,GI50,M14,3.83 µM (inactive)
same,GI50,SR,3.43 µM (inactive)

# Reference: ChEMBL document CHEMBL1201862, “PubChem BioAssay data set” (2004)
